Source: patent US11339193B2, “CDP protein secretion inhibitors” (KEZAR LIFE SCIENCES, priority 2018, dated 2022)
Numbered stars: 1 amine (or outer) side, 2 acyl side, 3 side chain; on linkers, the order of the positions; unused ones are H or OH. Square brackets hold non-standard residues; d marks the D form. Peptide text beside a SMILES is read from it. NMeTrp(1-(4-Br-benzyl)) = CN[C@@H](Cc1cn(Cc2ccc(Br)cc2)c2ccccc12)C(=O)O; Butanoyl(2R-oxy,4-CN) = N#CCC[C@@H](O)C(=O)O; NMe3Pal(5-F) = CN[C@@H](Cc1cncc(F)c1)C(=O)O; X22 = CCCC[C@@H](C)C[C@H](N[*:1])C(=O)[*:2]; Nva(5,5,5-F3) = N[C@@H](CCC(F)(F)F)C(=O)O; Abu(4,4,4-F3) = N[C@@H](CC(F)(F)F)C(=O)O; NMeL = CN[C@@H](CC(C)C)C(=O)O; NMeA = CN[C@@H](C)C(=O)O

Key:
Type in all cases: cell-based
[1] = test system: PD1-ss+10aa/Gaussia Luciferase; assay: Dox induced PD1-ss-Gluc assay; details: Flp-In 293 T-REx cells, doxycycline, 24 hours; read-out: PD1ss Gluc IC50
Outline: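 Stable Flp-In 293 T-REx line expressing doxycycline-inducible Gaussia luciferase fused to the PD1 signal sequence plus 10 amino acids. Cells plated the day before, then exposed to compound dilutions in DMSO/media containing doxycycline at 37 °C, 5% CO2.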

[2] = test system: TNFα-FL/Gaussia Luciferase; assay: Dox induced TNFα-FL-Gluc assay; details: Flp-In 293 T-REx cells, doxycycline, 24 hours; read-out: TNFa FL Gluc IC50
Outline: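 Stable Flp-In 293 T-REx line expressing full-length TNFα (aa 1-233) fused at its C-terminus to Gaussia luciferase under doxycycline-inducible control. Cells plated the day before, then given compound dilutions in DMSO/media containing doxycycline and incubated at 37 °C, 5% CO2.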

[3] = test system: NCI-H929 multiple myeloma cell line; assay: H929 assay (cell viability, Celltiter-Glo); details: Homo sapiens, NCI-H929; 48 hours, cell viability; read-out: H929 EC50
Outline: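 Cells plated in RPMI 1640 with 10% FBS and 2 mM glutamine, treated with compound dilutions in DMSO/media. Incubation 48 h at 37° C, 5% CO2. Viability from luciferase luminescence signal.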

[4] = test system: Prl-ss+10aa/Gaussia Luciferase; assay: Prl-ss-Gluc assay (constitutively active or 24 hr Dox inducible); details: Flp-In 293 T-REx cells, 24 hours; read-out: Prl IC50
Outline: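 Stable Flp-In 293 T-REx lines express Prl signal sequence+10aa fused to Gaussia luciferase, either constitutively (pcDNA5/FRT) or under the T-REx promoter (pcDNA5/FRT/TO). Cells plated the day before; compounds in DMSO/media (with doxycycline for the inducible line, 24 h) incubated at 37 °C, 5% CO2.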

[5] = test system: VCAMss+10aa/Gaussia Luciferase; assay: VCAM-ss-Gluc assay (constitutively active or Dox induced); details: Flp-In 293 T-REx cells, 24 hours
Description: Assays Constitutively Active VCAM-ss-Gluc Assay
Transfected cells were selected for resistance to the selectable markers Hygromycin and Blasticidin to create a stable cell line that constitutively expressed the VCAMss+ 10aa/Gaussia Luciferase fusion protein. The day before assay, cells were trypsinized and plated in 384-well tissue culture plates. The next day, culture media was removed from the wells and replaced with fresh media. Compound dilutions in DMSO/media were added to the wells and incubated at 37° C., 5% CO2.
Dox Induced VCAM-ss-Gluc Assay
Transfected cells were selected for resistance to the selectable markers Hygromycin and Blasticidin to create a stable cell line that contained the VCAMss+10aa/Gaussia Luciferase cDNA insert whose expression was regulated under the T-REx™ system. The day before assay, cells were trypsinized and plated in 384-well tissue culture plates. The next day, compound dilutions in DMSO/media containing doxycycline were added to the wells and incubated at 37° C., 5% CO2.

[6] = test system: JJN3 plasma cell leukemia cell line; assay: JJN-3 assay (Alamar blue); details: Homo sapiens, 72 h
Description: (§1) BT474 is a human breast tumor cell line. JJN3 is a human plasma cell leukemia cell line. […] Cells were seeded at 100 000 cells/mL. Aliquots of 5000 cells (50 μL) were added to each well in black, clear bottom 96-well plates. Compounds or control (50 uL of 1% DMSO in cell culture medium) were added to the cells to the indicated final concentrations and cells were incubated for 72 h (unless otherwise specified). After incubation was complete, Alamar blue (10 uL of a 1 mg/mL solution) was added to each well and plates were incubated for 5 h. Fluorescence was then measured (excitation 545 nm, emission 590 nm) and is reported as […] normalized to DMSO control.

[7] = test system: U266B1 multiple myeloma cell line; assay: U266 assay (cell viability, Celltiter-Glo); details: Homo sapiens, U-266; 48 hours, cell viability
Description: Cells were plated in 384-well tissue culture plates and treated with compound dilutions in DMSO/media. Plates were incubated at 37° C., 5% CO2 for 48 hours. After 48 hours, Celltiter-Glo@ (Promega) was added to each well and luciferase signal was quantified using Tecan Infinite M1000 Pro for cell viability determination.

HER3ss-Gluc = assay: HER3ss assay; details: HEK-293T T-rex cells, transient transfection, doxycycline, 24 h; read-out: HER3 ss IC50
Outline: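 HEK-293T T-REx cells were transiently transfected with HER3 signal sequence (plus four mature-domain residues) fused upstream of mature Gaussia luciferase. Cells were induced with doxycycline (1 μg/ml) and exposed to increasing compound concentrations for 24 h, then secreted luciferase in the conditioned medium was read by luminescence.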

[8] = test system: BT474 breast tumor cell line; assay: BT474 assay (Alamar blue); details: Homo sapiens, BT-474, 72 h
Description: as §1

COc1ccc(Cn2cc(C[C@H]3C(=O)N[C@@H](CC(C)C)C(=O)N(C)[C@@H](C)C(=O)O[C@H](C)C(=O)N[C@@H](CC(C)C)C(=O)N(C)[C@@H](CC(C)C)C(=O)N[C@@H](CC(C)C)C(=O)N3C)c3ccccc32)cc1 [C-11] (HELM PEPTIDE1{L.[meA].[C[C@@H](O[*:1])C(=O)[*:2]].L.[meL].L.[COc1ccc(Cn2cc(C[C@@H](C(=O)[*:2])N(C)[*:1])c3ccccc32)cc1]}$PEPTIDE1,PEPTIDE1,1:R1-7:R2$$$V2.0)
IC50 [1]: 52 nM | IC50 [2]: 295 nM | EC50 [3]: 2560 nM | IC50 [4]: 4500 nM | IC50 [5]: 2090 nM | EC50 [6]: 792 nM | EC50 [7]: 23700 nM

CCCC[C@@H](C)C[C@@H]1NC(=O)[C@H](Cc2cncc(F)c2)N(C)C(=O)[C@H](CC(C)C)NC(=O)[C@H](CC(C)C)N(C)C(=O)[C@H](C[C@H](C)CCCC)NC(=O)[C@@H](CCC#N)OC(=O)[C@H](C)N(C)C1=O [C-24] (cyclo(L[NMe3Pal(5-F)][X22][NMeA][Butanoyl(2R-oxy,4-CN)][X22][NMeL]))
IC50 [1]: 86 nM | IC50 [2]: 131 nM | EC50 [3]: 1480 nM | IC50 [4]: 1660 nM | IC50 [5]: 22 nM | EC50 [7]: 5540 nM

COc1ccc(Cn2cc(C[C@H]3C(=O)N[C@@H](CC(C)C)C(=O)N(C)[C@@H](C)C(=O)O[C@H](CCC#N)C(=O)N[C@@H](CC(C)C)C(=O)N(C)[C@@H](CC(C)C)C(=O)N[C@@H](CC(C)C)C(=O)N3C)c3ccccc32)cc1 [C-31] (HELM PEPTIDE1{L.[meA].[N#CCC[C@@H](O[*:1])C(=O)[*:2]].L.[meL].L.[COc1ccc(Cn2cc(C[C@@H](C(=O)[*:2])N(C)[*:1])c3ccccc32)cc1]}$PEPTIDE1,PEPTIDE1,1:R1-7:R2$$$V2.0)
IC50 [1]: 380 nM | IC50 [2]: 4060 nM | IC50 (HER3ss-Gluc): 264 nM | EC50 [8]: 5890 nM | EC50 [6]: 2060 nM

COc1ccccc1Cn1cc(C[C@H]2C(=O)N[C@@H](CC(C)C)C(=O)N(C)[C@@H](C)C(=O)O[C@H](CCC#N)C(=O)N[C@@H](CC(C)C)C(=O)N(C)[C@@H](CC(C)C)C(=O)N[C@@H](CC(C)C)C(=O)N2C)c2ccccc21 [C-32] (HELM PEPTIDE1{L.[meA].[N#CCC[C@@H](O[*:1])C(=O)[*:2]].L.[meL].L.[COc1ccccc1Cn1cc(C[C@@H](C(=O)[*:2])N(C)[*:1])c2ccccc21]}$PEPTIDE1,PEPTIDE1,1:R1-7:R2$$$V2.0)
IC50 [1]: 203 nM | IC50 [2]: 1050 nM | EC50 [3]: 4720 nM | IC50 [4]: 14200 nM | IC50 (HER3ss-Gluc): 161 nM | EC50 [8]: 5280 nM

CC(C)C[C@@H]1NC(=O)[C@H](Cc2ccccc2)N(C)C(=O)[C@H](CC(C)C)NC(=O)[C@H](CC(C)C)N(C)C(=O)[C@H](CC(C)C)NC(=O)[C@@H](CCC#N)OC(=O)[C@H](C)N(C)C1=O [C-37] (HELM PEPTIDE1{L.[meA].[N#CCC[C@@H](O[*:1])C(=O)[*:2]].L.[meL].L.[meF]}$PEPTIDE1,PEPTIDE1,1:R1-7:R2$$$V2.0)
IC50 [1]: 582 nM | IC50 [2]: 1020 nM | EC50 [3]: 6290 nM | IC50 [4]: 18500 nM | IC50 (HER3ss-Gluc): 267 nM | EC50 [8]: 6360 nM | EC50 [6]: 8810 nM | EC50 [7]: 20900 nM

CC(C)C[C@@H]1NC(=O)[C@H](Cc2cn(Cc3ccc(Br)cc3)c3ccccc23)N(C)C(=O)[C@H](CCC(F)(F)F)NC(=O)[C@H](CC(C)C)N(C)C(=O)[C@H](CC(F)(F)F)NC(=O)[C@@H](CCC#N)OC(=O)[C@H](C)N(C)C1=O [C-57] (cyclo(L[NMeA][Butanoyl(2R-oxy,4-CN)][Abu(4,4,4-F3)][NMeL][Nva(5,5,5-F3)][NMeTrp(1-(4-Br-benzyl))]))
IC50 [1]: 26 nM | IC50 [2]: 112 nM | EC50 [3]: 834 nM | IC50 [4]: 1500 nM | EC50 [8]: 832 nM | EC50 [6]: 154 nM

CC(C)C[C@@H]1NC(=O)[C@H](Cc2cn(Cc3ccc(Br)cc3)c3ccccc23)N(C)C(=O)[C@H](CC(F)(F)F)NC(=O)[C@H](CC(C)C)N(C)C(=O)[C@H](CC(F)(F)F)NC(=O)[C@@H](CCC#N)OC(=O)[C@H](C)N(C)C1=O [C-58, 3-((2R,5S,8S,11S,14S,17S,20S)-14-((1-(4-bromobenzyl)-1H-indol-3-yl)methyl)-8,17-diisobutyl-7,13,19,20-tetramethyl-3,6,9,12,15,18,21-heptaoxo-5,11-bis(2,2,2-trifluoroethyl)-1-oxa-4,7,10,13,16,19-hexaazacyclohenicosan-2-yl)propanenitrile] (cyclo(L[NMeA][Butanoyl(2R-oxy,4-CN)][Abu(4,4,4-F3)][NMeL][Abu(4,4,4-F3)][NMeTrp(1-(4-Br-benzyl))]))
IC50 [1]: 25 nM | IC50 [2]: 90 nM | EC50 [3]: 629 nM | IC50 [4]: 619 nM | EC50 [8]: 444 nM | EC50 [6]: 111 nM

CC(C)C[C@@H]1NC(=O)[C@H](Cc2cn(Cc3cccc(OC(F)(F)F)c3)c3ccccc23)N(C)C(=O)[C@H](CC(C)C)NC(=O)[C@H](CC(C)C)N(C)C(=O)[C@H](CC(C)C)NC(=O)[C@@H](CCC#N)OC(=O)[C@H](C)N(C)C1=O [C-75] (HELM PEPTIDE1{L.[meA].[N#CCC[C@@H](O[*:1])C(=O)[*:2]].L.[meL].L.[CN([C@@H](Cc1cn(Cc2cccc(OC(F)(F)F)c2)c2ccccc12)C(=O)[*:2])[*:1]]}$PEPTIDE1,PEPTIDE1,1:R1-7:R2$$$V2.0)
IC50 (HER3ss-Gluc): 857 nM | EC50 [8]: 8220 nM | EC50 [6]: 920 nM

CC(C)C[C@@H]1NC(=O)[C@H](Cc2cn(Cc3cccc(OC(F)F)c3)c3ccccc23)N(C)C(=O)[C@H](CC(C)C)NC(=O)[C@H](CC(C)C)N(C)C(=O)[C@H](CC(C)C)NC(=O)[C@@H](CCC#N)OC(=O)[C@H](C)N(C)C1=O [C-76] (HELM PEPTIDE1{L.[meA].[N#CCC[C@@H](O[*:1])C(=O)[*:2]].L.[meL].L.[CN([C@@H](Cc1cn(Cc2cccc(OC(F)F)c2)c2ccccc12)C(=O)[*:2])[*:1]]}$PEPTIDE1,PEPTIDE1,1:R1-7:R2$$$V2.0)
IC50 (HER3ss-Gluc): 245 nM | EC50 [8]: 5840 nM | EC50 [6]: 669 nM

CC(C)C[C@@H]1NC(=O)[C@H](Cc2cn(Cc3cccc(Br)c3)c3ccccc23)N(C)C(=O)[C@H](CC(C)C)NC(=O)[C@H](CC(C)C)N(C)C(=O)[C@H](CC(C)C)NC(=O)[C@@H](CCC#N)OC(=O)[C@H](C)N(C)C1=O [C-77] (HELM PEPTIDE1{L.[meA].[N#CCC[C@@H](O[*:1])C(=O)[*:2]].L.[meL].L.[CN([C@@H](Cc1cn(Cc2cccc(Br)c2)c2ccccc12)C(=O)[*:2])[*:1]]}$PEPTIDE1,PEPTIDE1,1:R1-7:R2$$$V2.0)
IC50 (HER3ss-Gluc): 787 nM | EC50 [8]: 15100 nM | EC50 [6]: 2500 nM
